Reference: US7304050B2, “Antibacterial agents” (Pfizer Inc., priority 2003, dated 2007)
≈ marks a conversion by molar mass, not a printed value.

Tests used:
[1] = test system: S. aureus UC-76; test: Antibacterial assay (Test A), microtitration MIC, Gram positive; format: cell-based; details: Staphylococcus aureus, UC76; Gram Positive Bacteria; strain UC-76; read-out: Minimum Inhibitory Concentrations S. aureus UC-76
Method: (§1) The compounds of the present invention were tested against an assortment of Gram-negative and Gram-positive organisms using standard microtitration techniques (Cohen et. al., Antimicrob., 1985;28:766;Heifetz, et. al., Antimicrob., 1974;6: 124).

[2] = test system: E. faecalis MGH-2; test: as above; format: cell-based; details: Enterococcus faecalis, MGH2; Gram Positive Bacteria; strain MGH-2; read-out: Minimum Inhibitory Concentrations E. faecalis MGH-2
Method: as §1

[3] = test system: S pyogenes C203; test: as above; format: cell-based; details: Gram Positive Bacteria; strain C203; read-out: Minimum Inhibitory Concentrations S pyogenes C203
Method: as §1

[4] = test system: E. coli transcription and translation (TnT); format: biochemical
[5] = test system: E. coli Tol C; test: Antibacterial assay (Test A), microtitration MIC, Gram negative; format: cell-based; details: Escherichia coli, read-out: Minimum Inhibitory Concentrations E. coli Tol C
Method: as §1

[6] = test system: M. catarrhalis BC3534; test: as above; format: cell-based; details: Moraxella catarrhalis; Gram Negative Bacteria; strain BC3534; read-out: Minimum Inhibitory Concentrations M. catarrhalis BC3534
Method: as §1

[7] = test system: H. influenzae HI3542; test: as above; format: cell-based; details: Haemophilus influenzae; Gram Negative Bacteria; strain HI3542; read-out: Minimum Inhibitory Concentrations H. influenzae HI3542
Method: as §1

| SMILES | MIC [1] | MIC [2] | MIC [3] | Inhibitory concentration in E. coli cell-free transcription/translation (TnT) assay [4] | MIC [5] | MIC [6] | MIC [7] |
| --- | --- | --- | --- | --- | --- | --- | --- |
| CC(=O)NC[C@H]1CN(c2ccc3c(c2)CCN(c2c(F)cc4c(=O)c(C(=O)O)cn(C5CC5)c4c2F)CC3)C(=O)O1 [Example 12, 7-{7-[5-(Acetylamino-methyl)-2-oxo-oxazolidin-3-yl]-1,2,4,5-tetrahydro-benzo[d]azepin-3-yl}-1-cyclopropyl-6,8-difluoro-4-oxo-1,4-dihydro-quinoline-3-carboxylic Acid] | 0.25 mg/L (≈ 0.441 µM) | 1 mg/L (≈ 1.77 µM) | 1 mg/L (≈ 1.77 µM) | 9.3 µg/mL | 4 mg/L (≈ 7.06 µM) | 0.25 mg/L (≈ 0.441 µM) | 0.06 mg/L (≈ 0.106 µM) |
| CC(=O)NC[C@H]1CN(c2ccc3c(c2)CCN(c2nc4c(cc2F)c(=O)c(C(=O)O)cn4C2CC2)CC3)C(=O)O1 [Example 14, 7-{7-[5-(Acetylamino-methyl)-2-oxo-oxazolidin-3-yl]-1,2,4,5-tetrahydro-benzo[d]azepin-3-yl}-1-cyclopropyl-6-fluoro-4-oxo-1,4-dihydro-[1,8]naphthyridine-3-carboxylic Acid] | 0.5 mg/L (≈ 0.91 µM) | 16 mg/L (≈ 29.1 µM) | 8 mg/L (≈ 14.6 µM) | 15 µg/mL | 16 mg/L (≈ 29.1 µM) | 2 mg/L (≈ 3.64 µM) | 0.06 mg/L (≈ 0.109 µM) |
| CC(=O)NC[C@H]1CN(c2ccc3c(c2)CCCN(c2cc4c(cc2F)c(=O)c(C(=O)O)cn4C2CC2)C3)C(=O)O1 [Example 16, 7-{7-[5-(Acetylamino-methyl)-2-oxo-oxazolidin-3-yl]-1,3,4,5-tetrahydro-benzo[c]azepin-2-yl}-1-cyclopropyl-6-fluoro-4-oxo-1,4-dihydro-quinolne-3-carboxylic Acid] | 8 mg/L (≈ 14.6 µM) | 32 mg/L (≈ 58.3 µM) | 4 mg/L (≈ 7.29 µM) | 10 µg/mL | 64 mg/L (≈ 117 µM) | 16 mg/L (≈ 29.2 µM) | 0.125 mg/L (≈ 0.228 µM) |
